Where “and” joins values, the source holds several entries; their conditions need not be identical. Equal entries are not always repeated. Toxic doses and inconclusive results are not listed. Rule for the calls: active = survival T/C of 150% or more; inactive = T/C below 125% in these data.
Tested on: B6C3F1 mice, Lewis lung carcinoma iv, survival T/C
Experiment: NCI In Vivo Anticancer Drug Screen. Data for tumor model Lewis Lung Carcinoma (intravenous) in B6C3F1 mice
Details: endpoint: median survival time, schedule: Q01DX009 (ip), higher = longer survival
Method in brief: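 Transplantable tumor in mice; compound treated vs vehicle controls; read-out survival; value = treated/control (T/C).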

[1] = dose: 6.25 mg/kg/injection, vehicle: Klucel (hydroxypropylcellulose) (HPC)
[2] = dose: 12.5 mg/kg/injection, vehicle: Klucel (hydroxypropylcellulose) (HPC)
[3] = dose: 25.0 mg/kg/injection, vehicle: Klucel (hydroxypropylcellulose) (HPC)
[4] = dose: 200.0 mg/kg/injection, vehicle: Klucel (hydroxypropylcellulose) (HPC)
[5] = dose: 400.0 mg/kg/injection, vehicle: Klucel (hydroxypropylcellulose) (HPC)
[6] = dose: 25.0 mg/kg/injection, vehicle: saline with Tween-80
[7] = dose: 50.0 mg/kg/injection, vehicle: saline with Tween-80
[8] = dose: 100.0 mg/kg/injection, vehicle: saline with Tween-80
[9] = dose: 200.0 mg/kg/injection, vehicle: saline with Tween-80
[10] = dose: 12.5 mg/kg/injection, vehicle: saline with Tween-80
[11] = dose: 50.0 mg/kg/injection, vehicle: Klucel (hydroxypropylcellulose) (HPC)
[12] = dose: 100.0 mg/kg/injection, vehicle: Klucel (hydroxypropylcellulose) (HPC)
[13] = dose: 12.0 mg/kg/injection, vehicle: saline

Measured: T/C

N#C[Se-].c1ccc([Te+](c2ccccc2)c2ccccc2)cc1
inactive: dose: 1.56 mg/kg/injection, vehicle: Klucel (hydroxypropylcellulose) (HPC) 97 % of control | dose: 3.12 mg/kg/injection, vehicle: Klucel (hydroxypropylcellulose) (HPC) 97 % of control | [1] 97 % of control | [2] 100 % of control | [3] 86 % of control

CN(C)c1ccc2c(SCC(=O)OCC(=O)[C@@]3(O)CC[C@H]4[C@@H]5CCC6=CC(=O)C=C[C@]6(C)[C@H]5C(=O)C[C@@]43C)c3ccc(N(C)C)cc3nc2c1
inactive: [4] 94 % of control | [5] 99 % of control | dose: 800.0 mg/kg/injection, vehicle: Klucel (hydroxypropylcellulose) (HPC) 101 % of control

O=C(C/C(=N\C(=S)Nc1cc(C(F)(F)F)ccc1Cl)NO)N1CCCC1
inactive: [6] 98 % of control and 101 % of control | [7] 99 % of control and 105 % of control | [8] 101 % of control and 111 % of control | [9] 99 % of control

N=c1ccc2nc3ccc(N)cc3sc-2c1
inactive: dose: 6.25 mg/kg/injection, vehicle: water 113 % of control | dose: 12.5 mg/kg/injection, vehicle: water 117 % of control | dose: 25.0 mg/kg/injection, vehicle: water 93 % of control

CNc1cccnc1/C=N/NC(N)=S
inactive: [10] 104 % of control | [6] 122 % of control | [7] 90 % of control

C[C@@]1(CO)[C@H](O)CC[C@@]2(C)[C@H]1CC[C@H]1C[C@@H]3C[C@@]12CC[C@@]3(O)COC(=O)CN
inactive: dose: 0.2 mg/kg/injection, vehicle: saline + alcohol 107 % of control | dose: 0.4 mg/kg/injection, vehicle: saline + alcohol 109 % of control | dose: 0.8 mg/kg/injection, vehicle: saline + alcohol 103 % of control | dose: 1.6 mg/kg/injection, vehicle: saline + alcohol 103 % of control | dose: 12.5 micrograms/kg/injection, vehicle: saline + alcohol 113 % of control | dose: 25.0 micrograms/kg/injection, vehicle: saline + alcohol 120 % of control | dose: 50.0 micrograms/kg/injection, vehicle: saline + alcohol 102 % of control | dose: 100.0 micrograms/kg/injection, vehicle: saline + alcohol 95 % of control | dose: 200.0 micrograms/kg/injection, vehicle: saline + alcohol 98 % of control

COc1ccc2c(ccc3oc([N+](=O)[O-])cc32)c1
inactive: [10] 98 % of control | [6] 110 % of control | [7] 104 % of control | [8] 100 % of control

C[C@]12CCC(=O)C=C1CC[C@@H]1[C@@H]2C(=O)C[C@@]2(C)[C@H]1CC[C@]2(O)C(=O)CO
inactive: [3] 95 % of control | [11] 99 % of control | [12] 98 % of control | [4] 103 % of control | [5] 93 % of control

O=C(O)CSc1c(Cl)c(=O)oc2ccc(Cl)cc12
inactive: [1] 93 % of control | [2] 93 % of control | [3] 94 % of control | [11] 98 % of control | [12] 98 % of control

C[n+]1c2cc(N)ccc2cc2ccc(N)cc21
inactive: dose: 1.5 mg/kg/injection, vehicle: saline 102 % of control | dose: 3.0 mg/kg/injection, vehicle: saline 95 % of control | dose: 6.0 mg/kg/injection, vehicle: saline 107 % of control | [13] 90 % of control

CCn1cnc2c(=S)nc[nH]c21
inactive: [13] 100 % of control | dose: 25.0 mg/kg/injection, vehicle: saline 99 % of control | dose: 50.0 mg/kg/injection, vehicle: saline 104 % of control

C[C@]12CC[C@H](O)CC1=CC[C@@H]1[C@@H]2CC[C@]2(C)C(=O)CC[C@@H]12
inactive: [6] 105 % of control | [7] 100 % of control | [8] 101 % of control | [9] 94 % of control | dose: 400.0 mg/kg/injection, vehicle: saline with Tween-80 99 % of control

Reference: PubChem BioAssay AID276 (DTP/NCI, 2004)
